Where “and” joins values, the source holds several entries; their conditions need not be identical. Equal entries are not always repeated.
What was measured:
[1] = test system: sera from vaccinated baboons (anti-Aβ antibodies); format: binding
[2] = test system: antisera from immunized Cynomolgus macaques; format: binding; set-up: unit not given here
[3] = test system: baboon anti-Aβ antibody; format: binding, baboons
[4] = test system: Aβ1-42; set-up: species or system guinea pigs; details: guinea pig, in vivo
[5] = test system: HBsAg2 Th (SEQ ID NO: 45); set-up: species or system guinea pigs; details: guinea pig, in vivo
[6] = test system: MvF4 Th (SEQ ID NO: 44); set-up: species or system guinea pigs; details: guinea pig, in vivo
[7] = test system: Peripheral blood mononuclear cells (PBMC); format: cell-based, human
[8] = test system: Peripheral blood mononuclear cells (PBMC); format: cell-based, human; remark: listed apart in the source
[9] = test system: Peripheral Blood Mononuclear Cells (PBMCs); format: cell-based, Cynomolgus macaque

Row | Substance | ELISA Titer (Log10) [1] | Specificity analysis of antisera (ELISA reactivity with peptide) [2] | also measured
1 | AEFRHDSGYE (PEPTIDE (1)..(10) Abeta 2-11 or APP 770(A673-E682); listed as Homo sapiens) [SEQ ID NO: 17] | 0.25 Log10 and 0.35 Log10 and 0.19 Log10 | 0.058 and 0.059 and 0.054 and 0.060 | Percent (%) Inhibition ELISA after peptide pre-absorption of sera [3]: 0%
2 | Aβ1-14-ϵK-HBsAg2 Th [SEQ ID NO: 63] |  |  | Aβ1-42 ELISA (SEQ ID NO: 1) Log10 Titer [4]: 3.596 Log10 and 3.653 Log10 and 3.696 Log10 and 3.681 Log10 and 3.836 Log10 and 3.744 Log10; Aβ1-42 ELISA (SEQ ID NO: 1) Log10 Titer, Geomean [4]: 3.700 Log10; HBsAg2 Th ELISA (SEQ ID NO: 45) Log10 Titer, Geomean [5]: 0.375 Log10; MvF4 Th ELISA (SEQ ID NO: 44) Log10 Titer [6]: 0.575 Log10 and 0.423 Log10 and 0.380 Log10 and 0.279 Log10 and 0.336 Log10 and 0.425 Log10; MvF4 Th ELISA (SEQ ID NO: 44) Log10 Titer, Geomean [6]: 0.393 Log10; reactivity against the two T helper epitopes (SEQ ID NOs: 44 and 45) [6]: little or no reactivity
3 | Aβ1-14-ϵK-KKK-MvF4 Th [SEQ ID NO: 62] |  |  | Aβ1-42 ELISA (SEQ ID NO: 1) Log10 Titer, Geomean [4]: 4.208 Log10; HBsAg2 Th ELISA (SEQ ID NO: 45) Log10 Titer, Geomean [5]: 0.397 Log10; MvF4 Th ELISA (SEQ ID NO: 44) Log10 Titer [6]: 0.268 Log10 and 0.216 Log10 and 0.196 Log10 and 0.179 Log10 and 0.332 Log10 and 0.286 Log10; MvF4 Th ELISA (SEQ ID NO: 44) Log10 Titer, Geomean [6]: 0.240 Log10; reactivity against the two T helper epitopes (SEQ ID NOs: 44 and 45) [6]: little or no reactivity
4 | EEISEVKMDA (PEPTIDE (1)..(10) Abeta -8-2 or APP 770(E664-A673); listed as Homo sapiens) [SEQ ID NO: 9] | 0.24 Log10 and 0.30 Log10 and 0.21 Log10 and 0.22 Log10 | 0.082 and 0.092 and 0.081 and 0.076 | 
5 | EFRHDSGYEV (PEPTIDE (1)..(10) Abeta 3-12 or APP 770(E674-V683); listed as Homo sapiens) [SEQ ID NO: 18] | 0.24 Log10 and 0.30 Log10 and 0.18 Log10 | 0.047 and 0.060 and 0.042 and 0.052 | Percent (%) Inhibition ELISA after peptide pre-absorption of sera [3]: 0% and 1% and 3%
6 | EISEVKMDAE (PEPTIDE (1)..(10) Abeta -7-3 or APP 770(E665-E674); listed as Homo sapiens) [SEQ ID NO: 10] | 0.23 Log10 and 0.25 Log10 and 0.16 Log10 and 0.14 Log10 | 0.060 and 0.056 and 0.064 and 0.053 | 
7 | EVKMDAEFRH (PROPEP (1)..(10) Abeta -4-6 or APP 770(E668-H677); listed as Homo sapiens) [SEQ ID NO: 13] | 0.19 Log10 and 0.23 Log10 and 0.16 Log10 and 0.14 Log10 | 0.046 and 0.047 and 0.054 | 
8 | FRHDSGYEVH (PEPTIDE (1)..(10) Abeta 4-13 or APP 770(F675-H684); listed as Homo sapiens) [SEQ ID NO: 19] | 0.20 Log10 and 0.40 Log10 and 0.22 Log10 and 0.30 Log10 | 0.085 and 0.076 and 0.066 and 0.096 | 
9 | GYEVHHQKLV (PEPTIDE (1)..(10) Abeta 9-18 or APP 770(G680-V689); listed as Homo sapiens) [SEQ ID NO: 24] | 0.13 Log10 and 0.27 Log10 and 0.19 Log10 and 0.12 Log10 | 0.055 and 0.067 and 0.052 and 0.059 | 
10 | HDSGYEVHHQ (PEPTIDE (1)..(10) Abeta 6-15 or APP 770(H677-Q686); listed as Homo sapiens) [SEQ ID NO: 21] |  | 0.266 and 0.494 and 0.419 and 0.332 | 
11 | HHQKLVFFAE (PEPTIDE (1)..(10) Abeta 13-22 or APP 770(H684-E693); listed as Homo sapiens) [SEQ ID NO: 28] | 0.19 Log10 and 0.22 Log10 and 0.13 Log10 and 0.12 Log10 | 0.044 and 0.052 and 0.046 and 0.032 | 
12 | HQKLVFFAED (PEPTIDE (1)..(10) Abeta 14-23 or APP 770(H685-D694); listed as Homo sapiens) [SEQ ID NO: 29] | 0.18 Log10 and 0.21 Log10 and 0.13 Log10 | 0.050 and 0.058 and 0.047 | 
13 | ISEVKMDAEF (PEPTIDE (1)..(10) Abeta -6-4 or APP 770(I666-F675); listed as Homo sapiens) [SEQ ID NO: 11] | 0.20 Log10 and 0.15 Log10 and 0.13 Log10 | 0.055 and 0.058 and 0.063 and 0.062 | 
14 | KMDAEFRHDS (PEPTIDE (1)..(10) Abeta -2-8 or APP 770(K670-S679); listed as Homo sapiens) [SEQ ID NO: 15] | 0.26 Log10 and 0.36 Log10 and 0.41 Log10 and 0.51 Log10 |  | 
15 | MDAEFRHDSG (PEPTIDE (1)..(10) Abeta -1-9 or APP 770(M671-G680); listed as Homo sapiens) [SEQ ID NO: 16] | 0.26 Log10 and 0.32 Log10 and 0.16 Log10 and 0.17 Log10 | 0.056 and 0.061 and 0.051 | Percent (%) Inhibition ELISA after peptide pre-absorption of sera [3]: 8%
16 | QKLVFFAEDV (PEPTIDE (1)..(10) Abeta 15-24 or APP 770(Q686-V695); listed as Homo sapiens) [SEQ ID NO: 30] |  | 0.043 and 0.055 and 0.062 and 0.059 | 
17 | RHDSGYEVHH (PEPTIDE (1)..(10) Abeta 5-14 or APP 770(R676-H685); listed as Homo sapiens) [SEQ ID NO: 20] | 0.23 Log10 and 0.34 Log10 and 0.27 Log10 and 0.41 Log10 | 0.296 and 0.400 and 0.453 and 0.461 | 
18 | SEVKMDAEFR (PEPTIDE (1)..(10) Abeta -5-5 or APP 770(S667-R676); listed as Homo sapiens) [SEQ ID NO: 12] | 0.21 Log10 and 0.24 Log10 and 0.16 Log10 and 0.13 Log10 | 0.056 and 0.053 and 0.054 and 0.050 | 
19 | SGYEVHHQKL (PEPTIDE (1)..(10) Abeta 8-17 or APP 770(S679-L688); listed as Homo sapiens) [SEQ ID NO: 23] |  | 0.097 and 0.071 and 0.077 and 0.082 | 
20 | TEEISEVKMD (PEPTIDE (1)..(10) Abeta -9-1 or APP 770(T663-D672); listed as Homo sapiens) [SEQ ID NO: 8] | 0.23 Log10 and 0.26 Log10 and 0.16 Log10 and 0.15 Log10 | 0.075 and 0.084 and 0.061 and 0.078 | 
21 | VKMDAEFRHD (PEPTIDE (1)..(10) Abeta -3-7 or APP 770(V669-D678); listed as Homo sapiens) [SEQ ID NO: 14] | 0.27 Log10 and 0.46 Log10 and 0.48 Log10 and 0.55 Log10 | 0.068 and 0.053 and 0.061 and 0.054 | 
22 | YEVHHQKLVF (PEPTIDE (1)..(10) Abeta 10-19 or APP 770(Y681-F690); listed as Homo sapiens) [SEQ ID NO: 25] | 0.16 Log10 and 0.43 Log10 and 0.15 Log10 and 0.22 Log10 | 0.092 and 0.069 and 0.058 | 
23 | phytohaemagglutinin [PHA] |  |  | Mean stimulation index, Difference [7]: −0.98; Mean stimulation index, Week 0 [7]: 28.73; Mean stimulation index, Week 16 [7]: 27.75; proliferation response by lymphocytes when added to the culture medium ([7]; 10 μg/mL): positive proliferation responses; IFN-γ mean cytokine concentration, Week 0 [8]: >320.00 pg/mL; IFN-γ mean cytokine concentration, Week 16 [8]: >318.91 pg/mL; IL-2 mean cytokine concentration, Week 0 [8]: 10.38^7 pg/mL; IL-2 mean cytokine concentration, Week 16 [8]: 12.84^7 pg/mL; IL-6 mean cytokine concentration, Week 0 [8]: >320.00 pg/mL; IL-6 mean cytokine concentration, Week 16 [8]: >320.00 pg/mL; IL-10 mean cytokine concentration, Week 0 [8]: 173.83 pg/mL; IL-10 mean cytokine concentration, Week 16 [8]: >162.77 pg/mL; TNF-α mean cytokine concentration, Week 0 [8]: >313.01 pg/mL; TNF-α mean cytokine concentration, Week 16 [8]: >300.87 pg/mL; IL-2 cytokine concentration [9]: 97.5 ± 6.6 pg/mL and 90.6 ± 12.4 pg/mL and 96.1 ± 13.3 pg/mL; IL-6 cytokine concentration [9]: 69.1 ± 12.0 pg/mL and 70.6 ± 15.7 pg/mL and 66.2 ± 7.3 pg/mL; TNF-α cytokine concentration [9]: 91.0 ± 29.1 pg/mL and 96.1 ± 22.2 pg/mL and 89.0 ± 13.7 pg/mL

Reference: US20220023401A1 (priority 2020, published 2022)
